Source: US8586768B2, “Design, synthesis and functional characterization of rottlerin analogs” (priority 2009, dated 2013)
Like-named read-outs stand apart in the source and are kept apart here.

Columns and labels:
P13K (p110b/p85a) = target: T1, P13K (p110b/p85a) (Homo sapiens, UniProt P42338); assay: In-vitro kinase profiling, radioisotope screening assay (Signal Chem); assay type: biochemical; details: 5 μM compound, 50 μM ATP, vs vehicle control; negative = inhibition
T1 construct: purchased Signal Chem (Richmond, BC, Canada)
T1 sequence (P42338 whole entry, stated change not applied): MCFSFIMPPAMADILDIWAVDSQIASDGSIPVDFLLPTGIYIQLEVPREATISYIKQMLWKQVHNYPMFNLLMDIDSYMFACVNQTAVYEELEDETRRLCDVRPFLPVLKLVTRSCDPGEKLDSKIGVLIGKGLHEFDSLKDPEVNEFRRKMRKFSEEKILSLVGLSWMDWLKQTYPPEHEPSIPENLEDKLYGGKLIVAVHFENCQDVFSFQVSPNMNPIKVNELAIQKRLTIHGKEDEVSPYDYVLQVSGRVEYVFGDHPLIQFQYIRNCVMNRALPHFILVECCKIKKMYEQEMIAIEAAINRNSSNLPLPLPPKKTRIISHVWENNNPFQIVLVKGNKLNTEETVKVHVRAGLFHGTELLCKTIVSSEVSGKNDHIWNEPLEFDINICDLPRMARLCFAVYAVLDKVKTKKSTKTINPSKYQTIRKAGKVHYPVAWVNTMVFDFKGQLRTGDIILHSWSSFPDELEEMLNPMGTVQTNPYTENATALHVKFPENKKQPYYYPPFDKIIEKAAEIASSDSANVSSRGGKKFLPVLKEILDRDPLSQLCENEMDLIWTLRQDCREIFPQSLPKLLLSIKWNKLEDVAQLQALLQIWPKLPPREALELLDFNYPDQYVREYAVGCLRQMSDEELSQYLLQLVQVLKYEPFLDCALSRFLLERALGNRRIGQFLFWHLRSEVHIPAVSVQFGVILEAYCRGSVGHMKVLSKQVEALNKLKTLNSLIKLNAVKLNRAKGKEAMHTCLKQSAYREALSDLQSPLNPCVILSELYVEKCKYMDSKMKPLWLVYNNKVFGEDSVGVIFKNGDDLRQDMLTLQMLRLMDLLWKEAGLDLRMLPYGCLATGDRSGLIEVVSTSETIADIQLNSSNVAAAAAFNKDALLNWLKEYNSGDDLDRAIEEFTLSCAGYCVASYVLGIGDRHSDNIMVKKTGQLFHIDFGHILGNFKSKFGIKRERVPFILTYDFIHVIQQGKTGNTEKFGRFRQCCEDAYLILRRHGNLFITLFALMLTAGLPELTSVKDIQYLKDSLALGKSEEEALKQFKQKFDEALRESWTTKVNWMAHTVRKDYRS
T1 sequence (P27986 2-724 partner): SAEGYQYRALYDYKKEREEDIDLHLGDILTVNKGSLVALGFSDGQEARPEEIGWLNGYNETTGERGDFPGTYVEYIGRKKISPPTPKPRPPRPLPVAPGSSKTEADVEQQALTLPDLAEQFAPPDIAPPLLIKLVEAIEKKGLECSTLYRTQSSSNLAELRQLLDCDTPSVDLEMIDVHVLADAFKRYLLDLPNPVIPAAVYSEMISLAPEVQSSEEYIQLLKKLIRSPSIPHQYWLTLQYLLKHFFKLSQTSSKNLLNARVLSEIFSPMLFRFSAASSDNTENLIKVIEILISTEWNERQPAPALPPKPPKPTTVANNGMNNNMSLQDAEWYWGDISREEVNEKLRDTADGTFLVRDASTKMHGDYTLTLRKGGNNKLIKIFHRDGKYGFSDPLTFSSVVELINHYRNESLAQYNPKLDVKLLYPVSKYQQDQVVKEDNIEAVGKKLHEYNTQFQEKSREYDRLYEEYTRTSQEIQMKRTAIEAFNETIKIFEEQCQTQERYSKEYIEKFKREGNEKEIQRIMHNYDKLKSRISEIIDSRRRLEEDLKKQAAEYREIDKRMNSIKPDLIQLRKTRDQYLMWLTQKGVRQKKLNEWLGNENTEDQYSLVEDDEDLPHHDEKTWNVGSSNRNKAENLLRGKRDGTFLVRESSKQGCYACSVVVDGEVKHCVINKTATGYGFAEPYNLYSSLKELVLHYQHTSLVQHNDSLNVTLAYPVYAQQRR
Experimental: (§1) Kinase profiling of PK analogs. The inhibitory effect of lead PK analogs were tested against a panel of 15 protein kinase targets (TABLE 1) to develop better lead candidates without “off” target effects. The selectivity assay was performed at Signal Chem™ (Richmond, BC, Canada) by profiling against protein kinase targets using the “Gold Standard” radioisotope screening assay format. This assay format gave the highest signal noise ratio and allowed the direct measurement of catalytic activity of a protein kinase.
(§2) All assays were performed in triplicate in a 96-well assay format and the % error between triplicates is <10%. Protein kinase assays was performed in the presence of 50 μM ATP at 30° C. for 15 min. The activity of the enzymes in the presence of 5 μM PK analogs was compared to that in the vehicle control and expressed as a percent change in activity relative to that observed in the vehicle control. In TABLE 1, the results are expressed as percent activity change compared to control. The intra-assay variability was determined to be less than 10%. Inhibition of target activity by the compound is shown by a negative value, while activation of target activity is shown by positive value, with values >10% considered to be highly significant.

PKCβ = target: T2, PKCβ (Homo sapiens, UniProt P05771); assay: as above; assay type: biochemical; details: 5 μM compound, 50 μM ATP, vs vehicle control; negative = inhibition
T2 construct: purchased Signal Chem (Richmond, BC, Canada)
T2 sequence (P05771 whole entry): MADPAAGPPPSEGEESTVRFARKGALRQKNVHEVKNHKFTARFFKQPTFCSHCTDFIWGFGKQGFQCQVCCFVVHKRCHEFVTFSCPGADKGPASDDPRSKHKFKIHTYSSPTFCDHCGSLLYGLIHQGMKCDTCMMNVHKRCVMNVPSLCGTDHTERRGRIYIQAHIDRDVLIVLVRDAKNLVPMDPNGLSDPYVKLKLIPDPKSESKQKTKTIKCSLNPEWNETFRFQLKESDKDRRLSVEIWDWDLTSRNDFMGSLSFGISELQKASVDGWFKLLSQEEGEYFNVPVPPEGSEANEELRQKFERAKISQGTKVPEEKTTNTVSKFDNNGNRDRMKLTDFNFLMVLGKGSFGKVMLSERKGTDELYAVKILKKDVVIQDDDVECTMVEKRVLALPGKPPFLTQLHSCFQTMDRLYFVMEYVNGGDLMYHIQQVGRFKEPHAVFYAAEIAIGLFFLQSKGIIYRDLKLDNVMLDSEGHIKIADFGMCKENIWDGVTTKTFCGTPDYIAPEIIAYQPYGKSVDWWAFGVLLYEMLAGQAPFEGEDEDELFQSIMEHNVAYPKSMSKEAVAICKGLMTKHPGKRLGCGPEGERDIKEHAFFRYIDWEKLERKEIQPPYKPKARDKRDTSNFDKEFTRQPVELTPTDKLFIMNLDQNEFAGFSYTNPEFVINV
Experimental: as §1, §2

PKCε = target: T3, PKCε (Homo sapiens, UniProt Q02156); assay: as above; assay type: biochemical; details: for % activity change: 5 μM compound, 50 μM ATP, vs vehicle control, negative = inhibition
T3 construct: purchased Signal Chem (Richmond, BC, Canada)
T3 sequence (Q02156 1-737): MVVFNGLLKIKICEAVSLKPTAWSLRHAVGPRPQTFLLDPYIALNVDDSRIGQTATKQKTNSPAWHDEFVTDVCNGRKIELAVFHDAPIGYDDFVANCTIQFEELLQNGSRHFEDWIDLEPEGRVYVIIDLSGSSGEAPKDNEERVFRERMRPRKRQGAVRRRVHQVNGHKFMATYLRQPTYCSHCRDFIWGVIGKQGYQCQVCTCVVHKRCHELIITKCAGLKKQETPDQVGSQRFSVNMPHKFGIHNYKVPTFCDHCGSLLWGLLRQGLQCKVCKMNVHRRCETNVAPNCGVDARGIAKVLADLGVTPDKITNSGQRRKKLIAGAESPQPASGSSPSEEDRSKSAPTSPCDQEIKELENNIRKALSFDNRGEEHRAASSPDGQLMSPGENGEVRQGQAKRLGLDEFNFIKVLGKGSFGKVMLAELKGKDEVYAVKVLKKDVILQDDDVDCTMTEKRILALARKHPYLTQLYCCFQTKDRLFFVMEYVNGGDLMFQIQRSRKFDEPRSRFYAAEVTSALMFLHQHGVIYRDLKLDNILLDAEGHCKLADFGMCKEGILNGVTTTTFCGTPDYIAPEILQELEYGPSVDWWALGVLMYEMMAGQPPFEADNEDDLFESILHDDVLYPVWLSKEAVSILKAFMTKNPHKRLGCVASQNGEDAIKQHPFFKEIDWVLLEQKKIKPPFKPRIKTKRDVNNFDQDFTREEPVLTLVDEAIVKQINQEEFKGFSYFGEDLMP
Experimental: as §1, §2

PKCδ = PKCδ (Homo sapiens, UniProt Q05655); assay: In vitro 32P phosphorylation kinase assay with histone substrate; assay type: biochemical; details: for % activity change 3 μM: 3 μM compound, negative = inhibition
Sequence of PKCδ (Q05655 whole entry): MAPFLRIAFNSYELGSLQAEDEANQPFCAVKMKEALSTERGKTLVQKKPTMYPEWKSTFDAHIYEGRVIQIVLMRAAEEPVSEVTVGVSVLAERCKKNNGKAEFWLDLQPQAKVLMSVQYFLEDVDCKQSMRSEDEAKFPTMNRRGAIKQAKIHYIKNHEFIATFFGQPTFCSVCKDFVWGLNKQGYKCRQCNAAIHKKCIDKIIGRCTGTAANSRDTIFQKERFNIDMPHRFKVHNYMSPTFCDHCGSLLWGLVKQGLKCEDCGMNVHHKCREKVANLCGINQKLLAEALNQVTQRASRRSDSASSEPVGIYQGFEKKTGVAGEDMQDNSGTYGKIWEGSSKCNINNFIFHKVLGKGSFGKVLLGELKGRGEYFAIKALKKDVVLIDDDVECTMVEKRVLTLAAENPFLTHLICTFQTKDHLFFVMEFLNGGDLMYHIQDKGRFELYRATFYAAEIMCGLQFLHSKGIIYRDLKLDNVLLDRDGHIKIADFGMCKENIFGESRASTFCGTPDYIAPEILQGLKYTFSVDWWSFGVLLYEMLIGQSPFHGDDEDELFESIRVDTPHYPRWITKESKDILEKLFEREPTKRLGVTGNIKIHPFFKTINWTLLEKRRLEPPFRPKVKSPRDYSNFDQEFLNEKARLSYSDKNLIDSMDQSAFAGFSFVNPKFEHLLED
Experimental: Since PK analogs are directed against PKCδ, it was first determined whether the analogs would inhibit PKCδ enzyme activity in kinase assays. The ability of lead PK analogs to inhibit purified human recombinant PKCδ enzyme activity by 32P phosphorylation kinase assay with histone as the substrate was measured. The in vitro kinase assays were performed with human recombinant PKCδ in the presence or absence of 0.3-10 μM lead PK analogs in the presence histone substrate, [^32P]-ATP and phospholipids. The extent of histone phosphorylation was determined after separation in SDS-PAGE and by phosphoimaging. IC50 was obtained using sigmoidal dose-response curve and non-linear regressional analysis using Graphpad Prism software.
In vitro kinase assays were performed with human recombinant PKCδ in the presence or absence of 0.3-10 μM lead PK analogs in the presence histone substrate, [^32P]-ATP and phospholipids. The extent of histone phosphorylation was determined after separation in SDS-PAGE and by phosphoimaging.

C57 black mice [1] = assay: Acute MPTP mouse model of PD, striatal dopamine and DOPAC; assay type: in vivo; details: MPTP 4 x 18 mg/kg i.p.; 10 mg/kg oral gavage, 7 days
Experimental: Lead PK analogs protect against behavioral deficits and neurochemical loss in a preclinical MPTP-induced mouse model of PD. After characterizing the neuroprotective effect of PK analogs in cell culture models of PD, as a proof of principle, preliminary evaluation of two lead PK analogs in an acute MPTP animal model of PD were conducted. C57 black mice received 4 doses of MPTP at 18 mg/kg i.p at 2 hr interval. Oral administration of lead PK analogs (10 mg/kg body wt, oral gavage) was started 1 day before MPTP insult and continued for 7 days. 1% DMSO was used as the vehicle control. Locomotor activity was measured using the VersaMax Analyzer 1-2 days before sacrificing the mice. Mice were sacrificed after 7 days of MPTP injection. (n=5). (**p<0.01: PK analogs versus MPTP).

C57 black mice [2] = assay: MPTP mouse model, tyrosine hydroxylase (TH) immunostaining of substantia nigra; assay type: in vivo; details: MPTP 4 x 18 mg/kg i.p.; 10 mg/kg oral gavage, 7 days
Experimental: PK analogs attenuate dopaminergic neuronal cell loss induced by MPTP toxicity in mouse substantia nigra. Lead PK analogs were examined to determine whether they could protect against MPTP-induced dopaminergic neuronal loss in C57 black mice. Mice received 4 doses of MPTP at 18 mg/kg i.p. at 2 hr interval. Oral administration of PK analogs (10 mg/kg body wt, oral gavage) was continued for 7 days. Mice were sacrificed after 7 days of MPTP injections. (n=5).
Abbreviataions: M: MPTP; SNpc: substantia nigra pars compacta; SNl: substantia nigra lateralis; SNr: substantia nigra reticularis; VTA: Ventral tegmental area.

[3] = Activity of simple rottlerin analogs compared with rottlerin (test not named)
Experimental: Design and Synthesis of Novel Rottlerin Analogs. Since Rottlerin has proven to be a difficult target to make synthetically, analogs have been developed and tested in an attempt to localize the region of activity and improve that activity. Initially, simple analogs of Rottlerin itself, obtained from CalBioChem (La Jolla, Calif., Cat #557370), were prepared and analyzed. Two compounds gave important results, one representing a simplified methylene linkage present in the parent compound (PK103), and the other (PK203) came from a simple bromination of natural Rottlerin.

[4] = LC-MS-MS detection in mouse brain after oral administration; assay type: in vivo
Text: Bioavailability of Lead PK analogs. LC-MS-MS detection of lead PK analogs PK202 and PK8302 analog in mouse brain was completed.

[5] = 0.3-10 μM, histone substrate, [32P]-ATP, phospholipids, read-out: IC50
[6] = mouse brain, oral administration (oral gavage)

| Compound | % activity change (P13K (p110b/p85a)) [%] | % activity change (PKCβ) [%] | % activity change (PKCε) [%] | % activity change 3 μM (PKCδ) [%] | IC50 (PKCδ; [5]) [µM] | striatal DOPAC depletion (C57 black mice [1]) | striatal dopamine depletion (C57 black mice [1]) | protection against MPTP-induced nigral dopaminergic degeneration (TH immunostaining) (C57 black mice [2]) | activity compared with Rottlerin [3] | level detected in substantia nigra by LC-MS-MS [4, 6] | level detected in substantia nigra by LC-MS-MS ([4]; mouse, in vivo, po) | inhibition at 5 µM (PKCε; 5 μM concentration, given as positive inhibition, read-out: inhibited by % compared to control) [%] | IC50 (PKCδ) [µM] |
| --- | --- | --- | --- | --- | --- | --- | --- | --- | --- | --- | --- | --- | --- |
| Oc1cc(O)c(Cc2c(O)cc(O)cc2O)c(O)c1 [PK103] | −6 | 3 | 5 | −65 | 5.98 | attenuated | attenuated | significant protection | less activity than Rottlerin |  |  |  |  |
| CC(=O)c1c(O)c(C)c(O)c(Cc2c(O)c3c(c4c2OC(c2ccccc2)CC4=O)OC(C)(C)C=C3)c1O (stereo not shown) [PK202] | −2 | 1 | −3 | −67 | 0.97 | attenuated | attenuated | significant protection |  | Significant amounts |  |  |  |
| CC1(C)C=Cc2c(O)cc(O)c(C(=O)/C=C/c3ccccc3)c2O1 [PK302] | −8 | 6 | 6 | −73 | 1.99 | attenuated | attenuated | significant protection |  |  | Significant amounts |  |  |
| CC(=O)c1c(O)c(C)c(O)c(Cc2c(O)c3c(c(C(=O)/C=C/c4ccccc4)c2O)OC(C)(C)C=C3)c1O [Rottlerin, (E)-1-[6-[(3-acetyl-2,4,6-trihydroxy-5-methylphenyl)methyl]-5,7-dihydroxy-2,2-dimethylchromen-8-yl]-3-phenylprop-2-en-1-one] | −10 | 0 | −25 | −40 |  |  |  |  |  | Significant levels |  | 25 | 13.6 |
